From patent US20200390899A1, “AMINOBENZAZEPINE COMPOUNDS, IMMUNOCONJUGATES, AND USES THEREOF” (BOLT BIOTHERAPEUTICS, INC., priority 2019, published 2020) come the findings set out here.

One assay concerns the target T1, human TLR8 (Homo sapiens, UniProt Q9NR97).
T1 construct: host or cells: HEK293 reporter cells
T1 sequence (Q9NR97 27-1041): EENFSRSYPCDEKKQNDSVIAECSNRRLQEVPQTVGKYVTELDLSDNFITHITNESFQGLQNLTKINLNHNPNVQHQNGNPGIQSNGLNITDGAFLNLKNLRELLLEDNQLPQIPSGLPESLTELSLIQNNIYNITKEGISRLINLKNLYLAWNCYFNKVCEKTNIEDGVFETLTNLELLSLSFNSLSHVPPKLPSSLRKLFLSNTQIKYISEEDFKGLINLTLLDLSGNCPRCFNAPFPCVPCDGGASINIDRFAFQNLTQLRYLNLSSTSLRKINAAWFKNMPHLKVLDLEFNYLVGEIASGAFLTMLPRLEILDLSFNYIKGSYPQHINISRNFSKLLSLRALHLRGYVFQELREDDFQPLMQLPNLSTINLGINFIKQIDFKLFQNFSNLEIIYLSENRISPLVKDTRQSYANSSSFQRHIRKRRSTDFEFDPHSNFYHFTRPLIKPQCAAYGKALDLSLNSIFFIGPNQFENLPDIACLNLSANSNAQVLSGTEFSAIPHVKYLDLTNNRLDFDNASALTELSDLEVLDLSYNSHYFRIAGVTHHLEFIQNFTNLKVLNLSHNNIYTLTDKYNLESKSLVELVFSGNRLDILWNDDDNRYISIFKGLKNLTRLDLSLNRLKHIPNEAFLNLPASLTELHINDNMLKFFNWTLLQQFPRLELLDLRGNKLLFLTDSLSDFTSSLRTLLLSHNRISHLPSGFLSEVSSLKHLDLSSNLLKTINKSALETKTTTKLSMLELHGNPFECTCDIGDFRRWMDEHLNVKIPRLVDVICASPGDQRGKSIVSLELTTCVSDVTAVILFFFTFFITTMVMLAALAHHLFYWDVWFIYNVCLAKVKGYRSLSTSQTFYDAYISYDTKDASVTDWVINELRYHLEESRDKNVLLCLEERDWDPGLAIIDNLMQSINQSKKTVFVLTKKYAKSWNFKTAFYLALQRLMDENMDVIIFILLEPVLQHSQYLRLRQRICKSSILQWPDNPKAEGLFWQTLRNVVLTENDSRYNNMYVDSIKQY
In words: HEK293 NFKB reporter assay, human TLR8. Type of assay: cell-based. To be noted: HEK293 reporter cells expressing human TLR8, read-out: HEK293 hTLR8 EC50. As for the experimental part: (§1) Each compound was synthesized and purified by the methods in the Examples provided herein, characterized by mass spectrometry, and shown to have the mass indicated. Activity against HEK293 NFKB reporter cells expressing human TLR7 or human TLR8 was measured according to Example 68.
(§2) HEK293 reporter cells expressing human TLR7 or human TLR8 were purchased from Invivogen and vendor protocols were followed for cellular propagation and experimentation. Briefly, cells were grown to 80-85% confluence at 5% CO2 in DMEM supplemented with 10% FBS, Zeocin, and Blasticidin. Cells were then seeded in 96-well flat plates at 4×10^4cells/well with substrate containing HEK detection medium and immunostimulatory molecules. Activity was measured using a plate reader at 620-655 nm wavelength.

The target in another assay is T2, human TLR7 (Homo sapiens, UniProt Q9NYK1).
T2 construct: host or cells: HEK293 reporter cells
T2 sequence (Q9NYK1 27-1049): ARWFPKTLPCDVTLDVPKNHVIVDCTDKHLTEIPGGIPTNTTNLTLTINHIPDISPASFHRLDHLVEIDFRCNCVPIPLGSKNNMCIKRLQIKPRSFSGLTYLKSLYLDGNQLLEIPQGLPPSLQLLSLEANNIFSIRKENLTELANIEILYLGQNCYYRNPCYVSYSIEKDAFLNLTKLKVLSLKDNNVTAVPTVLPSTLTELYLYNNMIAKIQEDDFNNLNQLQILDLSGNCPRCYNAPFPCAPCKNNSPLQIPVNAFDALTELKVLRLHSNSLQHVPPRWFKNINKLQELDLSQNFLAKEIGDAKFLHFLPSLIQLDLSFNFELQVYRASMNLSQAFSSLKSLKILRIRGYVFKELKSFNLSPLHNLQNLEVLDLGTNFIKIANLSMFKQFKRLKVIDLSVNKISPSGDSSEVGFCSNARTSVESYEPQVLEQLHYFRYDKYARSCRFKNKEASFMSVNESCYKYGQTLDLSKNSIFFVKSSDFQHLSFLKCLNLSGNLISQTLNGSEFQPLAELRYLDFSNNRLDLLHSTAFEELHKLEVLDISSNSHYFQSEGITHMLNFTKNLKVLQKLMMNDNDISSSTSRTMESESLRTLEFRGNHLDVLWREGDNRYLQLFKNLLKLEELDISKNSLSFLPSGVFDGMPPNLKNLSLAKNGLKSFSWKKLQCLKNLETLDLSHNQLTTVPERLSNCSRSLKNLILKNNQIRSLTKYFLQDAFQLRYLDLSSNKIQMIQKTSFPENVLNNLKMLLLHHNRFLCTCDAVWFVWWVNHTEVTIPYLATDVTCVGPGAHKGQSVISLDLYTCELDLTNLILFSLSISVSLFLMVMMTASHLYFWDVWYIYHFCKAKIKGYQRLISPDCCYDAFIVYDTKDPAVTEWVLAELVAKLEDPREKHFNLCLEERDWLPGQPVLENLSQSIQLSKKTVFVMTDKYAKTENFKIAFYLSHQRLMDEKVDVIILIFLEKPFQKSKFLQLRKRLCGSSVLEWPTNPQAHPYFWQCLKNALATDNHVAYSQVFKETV
The assay can be described thus: HEK293 NFKB reporter assay, human TLR7. The conditions noted are these: HEK293 reporter cells expressing human TLR7, read-out: HEK293 hTLR7 EC50. The assay is classed as cell-based. The protocol: as §1, §2

SMILES strings stand for the structures. Like-named read-outs stand apart in the source and are kept apart here.

On to `CCCN(CCCN(C)C(=O)OC(C)(C)C)C(=O)C1=Cc2ccc(-c3ccc(C(=O)N4CCCC4)cc3)cc2N=C(N)C1` [Bz-8], for which the figures for the EC50 on human TLR8 (Table 1a) and at human TLR7 (Table 1a) were above 9000 nM and 3370 nM, respectively.

For the compound `CCCN(CCC)C(=O)C1=Cc2ccc(-c3ccc(CN)c(S(=O)(=O)N4CC(CO)C4)c3)cc2N=C(N)C1` [Bz-2], the EC50 was 9760 nM on human TLR8 (Table 1a) and above 9000 nM at human TLR7 (Table 1a).

Regarding `CCCN(OCC)C(=O)C1=Cc2ccc(-c3cccc(S(=O)(=O)N4CC(CO)C4)c3)cc2N=C(N)C1` [Bz-42], the results for the EC50 at human TLR8 (Table 1c) and at human TLR7 (Table 1c) were 49 nM and at least 9000 nM, respectively.

Turning to `CCCN(CCc1ccc(OC)cc1)C(=O)C1=Cc2ccc(-c3cccc(S(=O)(=O)N4CC(CN(C)C)C4)c3)cc2N=C(N)C1` [Bz-76], the EC50 at human TLR8 (Table 1c) was determined as 786 nM; at human TLR7 (Table 1c), 969 nM.

Take `CCCN(Cc1ccc(CN2CCN(C(=O)OC(C)(C)C)CC2)cc1)C(=O)C1=Cc2ccc(-c3cccc(S(=O)(=O)N4CC(CO)C4)c3)cc2N=C(N)C1` [Bz-30, tert-butyl 4-[[4-[[[2-amino-8-[3-[3-(hydroxymethyl)azetidin-1-yl]sulfonylphenyl]-3H-1-benzazepine-4-carbonyl]-propyl-amino]methyl]phenyl]methyl]piperazine-1-carboxylate]: the EC50 on human TLR7 (Table 1b) is above 9000 nM.

As for `CCCN(Cc1ccc(CN2CCN(C(=O)OC(C)(C)C)CC2)cc1)C(=O)C1=Cc2ccc(-c3cccc(S(=O)(=O)N4CC(CO)C4)c3)cc2N=C(N)C1` [Bz-44], the EC50 at human TLR7 (Table 1c) is at least 9000 nM.

As to `CCCN(CCC)C(=O)C1=Cc2ccc(-c3cccc(S(=O)(=O)N4CCC(N)CC4)c3)cc2N=C(N)C1` [Bz-54], the EC50 on human TLR8 (Table 1c) is 198 nM.

For the compound `CCCN(CCC)C(=O)C1=Cc2ccc(-c3c(C)n[nH]c3C)cc2N=C(N)C1` [Bz-45], on human TLR8 (Table 1c), the EC50 stood at 345 nM.

Consider `CCCN(CCc1ccc(OC)cc1)C(=O)C1=Cc2ccc(-c3cccc(S(=O)(=O)N4CC(CO)C4)c3)cc2N=C(N)C1` [Bz-25, 2-amino-8-[3-[3-(hydroxymethyl)azetidin-1-yl]sulfonylphenyl]-N-[2-(4-methoxyphenyl)ethyl]-N-propyl-3H-1-benzazepine-4-carboxamide], for which the EC50 on human TLR8 (Table 1b) was 1400 nM; at human TLR7 (Table 1b) it was above 9000 nM.

Regarding `CCON(CCC(F)(F)F)C(=O)C1=Cc2ccc(-c3cccc(S(=O)(=O)N4CC(CO)C4)c3)cc2N=C(N)C1` [Bz-66], the EC50 amounted to 26 nM at human TLR8 (Table 1c) and 4610 nM on human TLR7 (Table 1c).

With `CCCN(CCCCCNC(=O)OC(C)(C)C)C(=O)C1=Cc2ccc(-c3cccc(S(=O)(=O)N4CC(CO)C4)c3)cc2N=C(N)C1` [Bz-9, tert-butyl N-[5-[[2-amino-8-[3-[3-(hydroxymethyl)azetidin-1-yl]sulfonylphenyl]-3H-1-benzazepine-4-carbonyl]-propyl-amino]pentyl]carbamate], the EC50 at human TLR8 (Table 1a) was determined as 629 nM; at human TLR7 (Table 1a), 8650 nM.

Regarding `CCCN(CCCNC(=O)CC(C)(C)C)C(=O)C1=Cc2ccc(-c3cccc(S(=O)(=O)N4CC(CO)C4)c3)cc2N=C(N)C1` [Bz-19, 2-amino-N-(3-(3,3-dimethylbutanamido)propyl)-8-(3-((3-(hydroxymethyl)azetidin-1-yl)sulfonyl)phenyl)-N-propyl-3H-benzo[b]azepine-4-carboxamide], the EC50 on human TLR8 (Table 1b) was determined as 3170 nM; on human TLR7 (Table 1b), 1070 nM.

For `CCCN(CCC)C(=O)C1=Cc2ccc(-c3cccc(S(=O)(=O)N4[C@@H]5CNC[C@@H]54)c3)cc2N=C(N)C1` (stereo partly drawn) [Bz-56], the EC50 at human TLR8 (Table 1c) is 111 nM.

Turning to `CCCN(CCC)C(=O)C1=Cc2ccc(-c3cccc(S(=O)(=O)N4CC(CNC(=O)OC(C)(C)C)C4)c3)cc2N=C(N)C1` [Bz-6, tert-butyl ((1-((3-(2-amino-4-(dipropylcarbamoyl)-3H-benzo[b]azepin-8-yl)phenyl)sulfonyl)azetidin-3-yl)methyl)carbamate], the concentration for a half-maximal effect (EC50) was 265 nM at human TLR8 (Table 1a) and above 9000 nM at human TLR7 (Table 1a).

As to `CCCN(CCCNC(=O)c1ccc(OCC)cc1)C(=O)C1=Cc2ccc(-c3cccc(S(=O)(=O)N4CC(CO)C4)c3)cc2N=C(N)C1` [Bz-33, 2-amino-N-(3-(4-ethoxybenzamido)propyl)-8-(3-((3-(hydroxymethyl)azetidin-1-yl)sulfonyl)phenyl)-N-propyl-3H-benzo[b]azepine-4-carboxamide], the 50% effective concentration (EC50) was 1920 nM on human TLR8 (Table 1b) and 1430 nM at human TLR7 (Table 1b).

As to `CCCN(OCC)C(=O)C1=Cc2ccc(-c3cccc(S(=O)(=O)N4CC(CN(C)C)C4)c3)cc2N=C(N)C1` [Bz-63], the EC50 amounted to 8 nM at human TLR8 (Table 1c) and 1270 nM on human TLR7 (Table 1c).

In the case of `CCCN(CCC)C(=O)C1=Cc2ccc(-c3cccc(S(=O)(=O)N4CCC5(CCNC5)C4)c3)cc2N=C(N)C1` (stereo not drawn) [Bz-57], the concentration for a half-maximal effect (EC50) on human TLR8 (Table 1c) is 741 nM.

Turning to `CCCN(CCC)C(=O)C1=Cc2ccc(CCCCCN)cc2N=C(N)C1` [Bz-74], the EC50 on human TLR8 (Table 1c) turned out to be 2560 nM.

As to `CCCN(CCC(F)(F)F)C(=O)C1=Cc2ccc(-c3cccc(S(=O)(=O)N4CC(CO)C4)c3)cc2N=C(N)C1` [Bz-47], the EC50 on human TLR8 (Table 1c) is 341 nM; at human TLR7 (Table 1c), at least 9000 nM.

Turning to `CCCN(NCC)C(=O)C1=Cc2ccc(-c3cccc(S(=O)(=O)N4CC(CO)C4)c3)cc2N=C(N)C1` [Bz-71], the EC50 on human TLR8 (Table 1c) is 2750 nM.

On to `CCCN(Cc1ccc(CN)cc1)C(=O)C1=Cc2ccccc2N=C(N)C1` [Bz-59], for which the concentration for a half-maximal effect (EC50) on human TLR8 (Table 1c) turned out to be 870 nM.

`CCCN(CCC)C(=O)C1=Cc2ccc(-c3c(C)nn(S(=O)(=O)N4CC(CO)C4)c3C)cc2N=C(N)C1` [Bz-48]: the EC50 at human TLR8 (Table 1c) was determined as 499 nM.

As to `CCCN(CCOC)C(=O)C1=Cc2ccc(-c3cccc(S(=O)(=O)N4CC(CO)C4)c3)cc2N=C(N)C1` [Bz-60], the concentration giving a half-maximal response (EC50) on human TLR8 (Table 1c) is 288 nM.

As to `CCCNN(CC)C(=O)C1=Cc2ccc(-c3cccc(S(=O)(=O)N4CC(CO)C4)c3)cc2N=C(N)C1` [Bz-72], the EC50 at human TLR8 (Table 1c) worked out at 4250 nM.

With `CCCN(CCC(F)(F)F)C(=O)C1=Cc2ccc(C(=O)Nc3ccccc3)cc2N=C(N)C1` [Bz-75], at human TLR8 (Table 1c), the EC50 came to 246 nM.

Turning to `CCCN(CCC)C(=O)C1=Cc2ccc(-c3cccc(S(=O)(=O)N4CC5(CCNC5)C4)c3)cc2N=C(N)C1` [Bz-53], on human TLR8 (Table 1c), the half-maximal effective concentration (EC50) turned out to be 249 nM.

Turning to `CCCN(CCC)C(=O)C1=Cc2ccc(-c3cccc(S(=O)(=O)N4CC5(CNC5)C4)c3)cc2N=C(N)C1` [Bz-52], the 50% effective concentration (EC50) at human TLR8 (Table 1c) was 1320 nM.
